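96-well plates; 48 h exposure; 5 concentrations. Endpoints by linear interpolation between flanking doses. Not reached: highest tested concentration assigned. TGI denotes the concentration required for complete inhibition of growth.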
Assays:
Test in all cases: growth of human tumour cells (NCI), 48 h
OVCAR-8 ovarian = tested on: OVCAR-8 ovarian
SR leukemia = tested on: SR leukemia
HCT-116 colon = tested on: HCT-116 colon
SF-539 CNS = tested on: SF-539 CNS
MDA-MB-231 breast = tested on: MDA-MB-231 breast
NCI-H460 lung = tested on: NCI-H460 lung
SK-MEL-28 melanoma = tested on: SK-MEL-28 melanoma
PC-3 prostate = tested on: PC-3 prostate
MDA-MB-435 = tested on: MDA-MB-435
OVCAR-3 ovarian = tested on: OVCAR-3 ovarian
MOLT-4 leukemia = tested on: MOLT-4 leukemia
CAKI-1 renal = tested on: CAKI-1 renal
786-0 renal = tested on: 786-0 renal

Structure (SMILES) | TGI (OVCAR-8 ovarian) | TGI (SR leukemia) | TGI (HCT-116 colon) | TGI (SF-539 CNS) | TGI (MDA-MB-231 breast) | TGI (NCI-H460 lung) | TGI (SK-MEL-28 melanoma) | TGI (PC-3 prostate) | TGI (MDA-MB-435) | TGI (OVCAR-3 ovarian) | TGI (MOLT-4 leukemia) | TGI (CAKI-1 renal) | TGI (786-0 renal)
COc1ccc(/[N+]([O-])=C/c2ccc(OC(=S)S)c(OC)c2)cc1 | > 100 µM | 63.5 µM | > 100 µM | > 100 µM | > 100 µM | > 100 µM | > 100 µM | > 100 µM | 61.1 µM | > 100 µM | > 100 µM | 66.7 µM | > 100 µM
C#C[C@]1(O)CC[C@H]2[C@@H]3CCC4=C/C(=N\OCCN5CCCCC5)CC[C@]4(C)[C@H]3CC[C@@]21C | 21.2 µM | 5.17 µM | 22.2 µM | 15.5 µM | 29 µM | 27.4 µM | 27.4 µM | 17.3 µM | 8.91 µM | 16.4 µM | 11.6 µM | 20.5 µM | 14.9 µM
Cc1cc(N(CCC#N)CCC#N)ccc1/C(N=Nc1ccc([N+](=O)[O-])cc1)=N\NC(=O)c1cc(Cl)ccc1O | 63 µM | > 100 µM | 88.1 µM | > 100 µM | > 100 µM | > 100 µM | – | > 100 µM | > 100 µM | 38.2 µM | 72.3 µM | > 100 µM | > 100 µM
ClCc1nc2ccccc2[nH]1 | > 100 µM | > 100 µM | > 100 µM | > 100 µM | > 100 µM | > 100 µM | > 100 µM | > 100 µM | > 100 µM | > 100 µM | > 100 µM | > 100 µM | > 100 µM
Cc1ccc2c(c1)nc1n2C(c2c(F)cccc2F)SC1 (stereo not drawn) | > 100 µM | 87.9 µM | 72.3 µM | 59.2 µM | > 100 µM | > 100 µM | > 100 µM | > 100 µM | > 100 µM | > 100 µM | 87.4 µM | > 100 µM | > 100 µM
OC1NC2Nc3ccccc3NC2NC1O (stereo not drawn) | > 100 µM | > 100 µM | > 100 µM | > 100 µM | > 100 µM | > 100 µM | > 100 µM | > 100 µM | > 100 µM | > 100 µM | > 100 µM | > 100 µM | > 100 µM
CCCCCCN(CCCCCC)CCC(=O)c1ccc2cc(Br)c3ccccc3c2c1 | > 100 µM | 14.3 µM | > 100 µM | 52.5 µM | 67.4 µM | > 100 µM | > 100 µM | > 100 µM | 74.3 µM | > 100 µM | – | > 100 µM | > 100 µM
COc1ccc(/C=C2\N=C(N3CCCC(CO)C3)NC2=O)cc1 (stereo not drawn) | > 100 µM | > 100 µM | > 100 µM | > 100 µM | > 100 µM | – | > 100 µM | > 100 µM | > 100 µM | > 100 µM | > 100 µM | > 100 µM | > 100 µM
COC(NC(=O)Nc1ccc(C)cc1)(C(F)(F)F)C(F)(F)F | 78.5 µM | > 100 µM | > 100 µM | > 100 µM | 99 µM | > 100 µM | > 100 µM | > 100 µM | > 100 µM | > 100 µM | 48.6 µM | – | > 100 µM

Reference: PubChem BioAssay (NCI)
